Biological target: T1, Human calcitonin receptor (Homo sapiens, UniProt P30988)
T1 construct: expressed in transfected cells; host or cells: BHK-570 (Hollex-1)
T1 sequence (P30988 25-474): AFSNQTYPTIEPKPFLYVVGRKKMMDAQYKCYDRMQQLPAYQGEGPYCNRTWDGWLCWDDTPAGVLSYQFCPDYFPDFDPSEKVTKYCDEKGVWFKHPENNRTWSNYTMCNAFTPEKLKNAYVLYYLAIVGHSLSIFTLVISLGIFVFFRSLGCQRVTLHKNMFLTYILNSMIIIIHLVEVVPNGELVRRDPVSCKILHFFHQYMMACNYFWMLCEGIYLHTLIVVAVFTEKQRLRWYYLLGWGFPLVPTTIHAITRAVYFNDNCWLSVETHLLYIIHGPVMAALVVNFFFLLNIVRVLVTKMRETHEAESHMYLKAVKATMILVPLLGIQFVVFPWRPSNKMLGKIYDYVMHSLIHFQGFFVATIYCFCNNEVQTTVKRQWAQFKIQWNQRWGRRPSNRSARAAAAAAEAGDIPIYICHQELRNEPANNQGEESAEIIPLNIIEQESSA
Assay: CRE-luciferase assay for calcitonin mimetics (Hollex-1)
Format: cell-based
Procedure: CRE-Luciferase Assay Method for Calcitonin Mimetics
Human calcitonin receptor-positive and receptor-negative BHK-570 (Baby Hamster Kidney) cell lines were maintained by serial passage in growth medium (DMEM supplemented with 10% heat-inactivated fetal calf serum (HI-FCS), 2 mM L-glutamine, 1 mM sodium pyruvate, 250 nM MTX, and 1 mg/mL G418). On the day prior to assay, cells were trypsinized, adjusted to 2.5×10^5 cells/ml in growth medium, plated in opaque white Dynatech Microlite microtiter tissue culture plates at 50 μL/well, and grown overnight to confluence (37° C., 5% CO2 atmosphere).
Test substances were prepared in DMSO or 10% DMF at 100 times the final desired assay concentration. […] Controls were included on each plate: untreated wells (basal), […], and 100 nM human calcitonin. DMSO or DMF was included in control wells at a concentration equal to that in test samples (not to exceed a final assay concentration of 2% DMSO or 0.5% DMF, with a preferred maximum of 1% DMSO or 0.1% DMF).
Plates were incubated for 3 to 8 hours (4 hours preferred) at 37° C. in an atmosphere of 5% CO2. Following induction, luciferase activity was measured using a Promega luciferase assay kit (E1500) according to the assay kit protocol (Promega Corp., Madison, Wis.). Briefly, assay medium was removed and cells were washed once with phosphate buffered saline (PBS). After the wash, 25 μl of lysis buffer was added to each well, and the plates were incubated for 15 minutes at room temperature. Fifty microliters of Luciferase Assay Substrate (Promega, Corp.) was added to each well and the plates were transferred to a Labsystems Lumiscan microtiter luminometer (Labsystems Inc., Morton Grove, Ill.). The amount of luminescence (relative light units, RLU) was determined following a 0.1 second/well integration of signal. Basal (uninduced) luciferase signal was subtracted from all measurements, and the luciferase signal induced by test samples was expressed as a percentage of the signal in the calcitonin and forskolin controls. Specificity of the luciferase induction for calcitonin receptor-positive cell lines was determined by comparing the percent control values in the calcitonin receptor-positive line (Hollex-1) to those observed in the calcitonin receptor-negative cell line (KZ10-20-48/Zem 228) and the PTH receptor-positive cell line (KZ10-20-48/PTH-20) described below. Samples inducing a signal over the basal level were selected for further characterization, see Table 1 for examples.

SMILES | Luciferase induction (% of maximum luciferase induction produced by CT, 100 nM) (crude compound 3.125 μg/ml) [%] | Luciferase induction (% of maximum luciferase induction produced by CT, 100 nM) (crude compound 6.25 μg/ml) [%] | Luciferase induction (% of maximum luciferase induction produced by CT, 100 nM) (crude compound 12.5 μg/ml) [%] | Luciferase induction (% of maximum luciferase induction produced by CT, 100 nM) (crude compound 25 μg/ml) [%] | Luciferase induction (% of maximum luciferase induction produced by CT, 100 nM) (crude compound 50 μg/ml) [%]
C=CCNC(=O)[C@@H](Cc1ccccc1)NC(=O)Nc1cc(C(C)(C)C)ccc1C(C)(C)C [628-013] | 3.51 | 17.98 | 51.62 | 69.62 | 64.26
CCNC(=O)C(Cc1ccc(OCC)cc1)NC(=O)Nc1cc(C(C)(C)C)ccc1C(C)(C)C (centres unmarked) [628-007] | 0.76 | 10.61 | 31.97 | 55.34 | 31.73
C=CCNC(=O)C(Cc1ccc(OCC=C)cc1)NC(=O)Nc1cc(C(C)(C)C)ccc1C(C)(C)C (centres unmarked) [628-015] | 1.62 | 14.69 | 43.2 | 72.17 | 71.49
CC(C)(C)c1ccc(C(C)(C)C)c(NC(=O)N[C@H](Cc2ccc3ccccc3c2)C(=O)NCc2ccccc2)c1 [628-045] | 20.19 | 38.73 | 42.49 | 44.51 | 40.62
CCNC(=O)[C@@H](Cc1ccc2ccccc2c1)NC(=O)Nc1cc(C(C)(C)C)ccc1C(C)(C)C [628-025] | 0.42 | 0.65 | 2.33 | 7.96 | 22.61
C=CCNC(=O)[C@@H](Cc1ccc(I)cc1)NC(=O)Nc1cc(C(C)(C)C)ccc1C(C)(C)C [628-034] |  | 6.89 | 25.02 | 33.86 | 38.68
C=CCNC(=O)[C@@H](Cc1ccc(Cl)cc1)NC(=O)Nc1cc(C(C)(C)C)ccc1C(C)(C)C [628-032] |  | 25.42 | 27.28 | 31.34 | 33.94
CC(C)(C)c1ccc(C(C)(C)C)c(NC(=O)N[C@H](Cc2ccc(F)cc2)C(=O)NCc2ccccc2)c1 [628-043] | 6.48 | 34.53 | 42.06 | 46.24 | 47.95
CC(C)(C)c1ccc(C(C)(C)C)c(NC(=O)N[C@@H](C(=O)NCc2ccc3ccccc3c2)c2ccccc2)c1 [628-056] | 4.2 | 14.7 | 28.6 | 35.6 | 37.1
CCNC(=O)[C@@H](Cc1ccc(I)cc1)NC(=O)Nc1cc(C(C)(C)C)ccc1C(C)(C)C [628-024] | −1.24 | 1.39 | 11.8 | 22.64 | 30.25
CCNC(=O)[C@@H](Cc1ccc(Cl)cc1)NC(=O)Nc1cc(C(C)(C)C)ccc1C(C)(C)C [628-022] | 2.08 | 3.26 | 17.85 | 41.52 | 46.98
CC(C)(C)c1ccc(C(C)(C)C)c(NC(=O)N[C@H](Cc2ccc(F)cc2)C(=O)NCc2ccc3ccccc3c2)c1 [628-053] | 3.29 | 11.89 | 32.31 | 41.8 | 40.14
CC(C)(C)c1ccc(C(C)(C)C)c(NC(=O)N[C@H](Cc2ccc(Cl)cc2)C(=O)NCc2ccccc2)c1 [628-042] | 19.16 | 49.17 | 59.74 | 68.69 | 60.41
C=CCNC(=O)[C@H](NC(=O)Nc1cc(C(C)(C)C)ccc1C(C)(C)C)c1ccccc1 [628-036] |  | 4.12 | 6.43 | 8.0 | 10.38
C=CCNC(=O)C(Cc1cn(CC=C)c2ccccc12)NC(=O)Nc1cc(C(C)(C)C)ccc1C(C)(C)C (centres unmarked) [628-016] | 10.72 | 43.89 | 76.44 | 80.63 | 75.76
CC(C)(C)c1ccc(C(C)(C)C)c(NC(=O)N[C@H](Cc2ccc(I)cc2)C(=O)NCc2ccc3ccccc3c2)c1 [628-054] | 10.73 | 27.05 | 42.54 | 47.47 | 54.86
CC(C)(C)c1ccc(C(C)(C)C)c(NC(=O)N[C@H](Cc2ccc(I)cc2)C(=O)NCc2ccccc2)c1 [628-044] | 10.65 | 24.08 | 29.35 | 26.23 | 30.14
CCNC(=O)[C@@H](Cc1ccc(F)cc1)NC(=O)Nc1cc(C(C)(C)C)ccc1C(C)(C)C [628-023] | −0.46 | 7.84 | 32.04 | 46.84 | 41.79
CCNC(=O)C(Cc1cn(CC)c2ccccc12)NC(=O)Nc1cc(C(C)(C)C)ccc1C(C)(C)C (centres unmarked) [628-008] | −1.31 | 2.91 | 20.07 | 50.93 | 50.39

Reference: US6391917B1, “Dialkyl ureas as calcitonin mimetics” (ZymoGenetics, Inc., priority 1998, dated 2002)
